Measured values: patent publication US20130095493A1, “IDENTIFICATION OF THE GENE NOTCH3 AS A NOVEL BIOMARKER FOR HUMAN METASTATIC MELANOMA” (THE JOHNS HOPKINS UNIVERSITY, priority 2011, published 2013)
Entries after “also recorded” stand apart in the source; their conditions may differ.

What was measured:
Format in all cases: cell-based, human
[1] = system: Notch signaling (4XCBF-1 Notch luciferase reporter in GFP-1205Lu co-cultured with RFP-HUVEC); assay: Notch luciferase reporter co-culture (dual-luciferase assay)
Experimental: GFP-1205Lu was transfected using Lipofectamine 2000 with 4XCBF-1 Notch luciferase reporter (kindly provided by Dr. Diane Hayward, Johns Hopkins University) and Renilla control plasmid (2 μg total cDNA/well). Cells were transfected for 4 hr, then harvested by trypsinization and co-cultured with RFP-HUVEC at varying ratios for 24 hr in EGM-2. Cells were washed with PBS, snap-frozen, and stored at −80° C. Co-cultures were lysed using the Dual-Luciferase Reporter Assay System (Promega) and analyzed on a 1450 Microbeta plate reader (Perkin Elmer). The specificity of Notch signaling was verified using the pan-Notch inhibitor DAPT and 0.1% DMSO as a vehicle control.
The transcriptional activity of Notch is mediated by the CBF-1 promoter sequence upstream of target genes. CBF-1 recruits CSL transcriptional repressors which inactivate gene expression in the absence of NICD. […] Thus, by utilizing a four-tandem repeat of CBF-1 to drive luciferase expression during a transient transfection, canonical Notch signaling can be directly quantified by chemiluminescence activity in a target cell population. […]
To quantify Notch signaling within the model system, GFP-1205Lu was transiently transfected with 4XCBF-1 Notch luciferase reporter (PJH23A) and co-cultured with RFP-HUVEC for 24 hours. […]

[2] = system: GFP-1205Lu or RFP-HUVEC grown alone; assay: Growth of cells cultured alone under DAPT; conditions: 10 μM DAPT vs 0.1% DMSO
Description: (§1) In previous investigations, we observed RFP-HUVEC communicating in a concerted fashion with metastatic melanoma cells to create a networking phenotype during 48 hrs of co-culture. It was thought that understanding the molecular determinants of this communication could lead to pharmacological targets for the prevention of melanoma-endothelial crosstalk in the clinical setting. To determine whether Notch signaling is involved in mediating the networking phenotype, GFP-1205Lu and RFP-HUVEC were co-cultured in 0.1% DMSO (vehicle) or 10 μM DAPT. These cells were also cultured alone in identical media to determine whether these conditions elicited any aberrant growth not attributable to co-culture.

[3] = system: RFP-HUVEC networking phenotype in GFP-1205Lu:RFP-HUVEC co-culture; assay: Melanoma-endothelial co-culture networking phenotype; conditions: 10 μM DAPT vs 0.1% DMSO; 1:1 GFP-1205Lu:RFP-HUVEC co-culture
Experimental: For co-culture experiments, various GFP-labeled melanoma cell lines were co-cultured with RFP-HUVEC at a 1:1 ratio to 95% confluency in EGM-2. Melanoma cells grown alone were cultured in EGM-2 to control for medium effects. Cells were co-cultured for 48 hours before sorting by FACS into pure populations. The sorted cell populations were divided and stored at −80° C. for mRNA and protein analysis.
as §1

## C[C@H](NC(=O)Cc1cc(F)cc(F)c1)C(=O)N[C@H](C(=O)OC(C)(C)C)c1ccccc1 [DAPT]
[1]; 10 μM DAPT vs 0.1% DMSO vehicle
  Inhibition of quantified Notch signaling: effectively inhibiting all quantified Notch signaling
[1]; GFP-1205Lu with 4XCBF-1 reporter, RFP-HUVEC co-culture 24 hours, DMSO vehicle had no effect
  Effect on co-culture stimulated Notch signaling (luciferase reporter): completely abrogated the co-culture stimulated Notch signaling; also recorded: completely abrogated all Notch signaling observed
[2]
  Effect on growth of GFP-1205Lu or RFP-HUVEC grown alone: little effect; also recorded: no discernable difference
[3]
  Effect on RFP-HUVEC networking phenotype in co-culture: drastically affected; also recorded: RFP-HUVEC network disruption
